Results reported in ChEMBL document CHEMBL2203066 (J Med Chem, 2012).

Columns and labels:
Influenza A virus [1] = test: Antiviral activity against oseltamivir-resistant Influenza A virus A/Hong Kong/2369/09/H275Y(H1N1) infected in MDCK cells assessed as protection against virus-induced cytopathic effect after 48 to 72 hrs by CellTiter 96 aqueous assay; assay type: functional, organism-based
Influenza A virus [2] = test: Antiviral activity against oseltamivir-resistant Influenza A virus A/WSN/1933/H275Y (pandemic H1N1) infected in MDCK cells assessed as protection against virus-induced cytopathic effect after 48 to 72 hrs by CellTiter 96 aqueous assay; assay type: functional, organism-based, A/WSN/1933/H275Y(H1N1)

Structure (SMILES)	EC50 (Influenza A virus [1]) [µM]	EC50 (Influenza A virus [2]) [µM]
CCOP(=O)(O)C1=C[C@@H](OC(CC)CC)[C@H](NC(C)=O)[C@@H](N)C1 [TAMIPHOSPHOR MONOETHYL ESTER]	0.44	0.49
CCC(CC)O[C@@H]1C=C(P(=O)(O)O)C[C@H](NC(=N)N)[C@H]1NC(C)=O	4.6	3.2
CCC(CC)O[C@@H]1C=C(P(=O)(O)O)C[C@H](N)[C@H]1NC(C)=O [TAMIPHOSPHOR]	6.55	7.4
